{
  "source": "paper PMC12495412",
  "about": "“Coumarin/nitrogen-bearing heterocyclic hybrid-loaded electrospun PMMA/PVP nanofibrous scaffolds for accelerating topical wound healing rates: synthesis and in vitro bio-evaluation” (RSC Advances, 2025)",
  "key": {"A549 cells [1]": {"tested_on": "A549 cells", "assay": "Wound healing scratch (anti-migration) assay", "type": "cell-based, human", "conditions": "IC50 doses, 48 h", "experimental": "To assess the anti-migration inhibition capability of newly synthesized derivatives, a wound healing technique was employed. A549 cells were planted in 12-well plates and kept alive at 37 °C until they achieved 80–90% fluency. The cell monolayers were smashed with a sterile tip and exposed to the prepared derivatives at IC50 doses. At 0 and 48 h of treatment, the wound closure area was captured and calculated by imaging analysis with the Cell-Sens software (Olympus, Japan)."}, "Caco-2 cells": {"tested_on": "Caco-2 cells", "assay": "MTT anticancer assay", "type": "cell-based", "description": "(§1) MTT assay: the normal cell line (Wi-38), colon cancer (Caco-2), lung cancer (A549), and breast cancer (MDA) cell lines were sourced from ATCC, USA. All different cell lines were cultivated and preserved in DMEM medium (SERANA, Germany), accompanied by 10% FBS (Gibco, USA) and 1% Pen/Strep solution (Lonza, USA). The newly prepared derivatives at various doses were considered for their anticancer activity and their safety on normal cells, applying MTT (3-[4, 5-dimethylthiazol]-2, 5-diphenyltetrazolium bromide) methods.[22] At first, all normal and cancer cell lines (1.0 ×10^4) were inoculated in 4 antiseptic 96-well tissue culture microplates and incubated for 24 h in a CO2 incubator. After cell attachments, the prepared derivatives were added to both normal Wi-38 cells at diverse concentrations of (6.25–200 μg mL^−1, 2-fold) and cancer cells at different concentrations of (3.125–100 μg mL^−1, 2-fold) in triplicate and incubated for another 48 h at 37 °C in a CO2 incubator with an adjusted concentration of 5%. After that, the treated cells were cleaned three times with PBS to remove debris and dead cells. Next, 200 μL of 0.5 mg mL^−1 MTT dye solution in PBS was mixed in each well, and the cells were further kept for 3 h at 37 °C in a 5% CO2 incubator. After that, MTT was removed and 200 μL of DMSO was added to each well. The optical density (OD) was recorded at 570 nm via a microplate reader (B.M.G. LabTech, Germany). Basic cells (untreated) were utilized as negative control cells, and 5-fluorouracil (5-FU) was included as a standard chemotherapy drug. The qualified cell viability (%) was evaluated as in equation (eqn (1)):1 Relative cell viability (%) = […] A1 is the OD of the examined derivative, A0 is the OD of the standard, and AU is the OD of the untreated cells.\n(§2) Anticancer activity assay: the anticancer effect of each derivative was assessed by evaluating the half-maximal inhibitory concentration (IC50) value via the GraphPad Prism 7.0 software. However, SI (selective index) values of each derivative were estimated by splitting the IC50 value of healthy cells by the IC50 value of malignant cells, as previously reported.[23] The effects of the created derivatives on the morphology of MDA cells were evaluated at IC50 doses and captured by phase-contrast microscopy (Olympus, Germany) in comparison to untreated control cells."}, "MDA cells": {"tested_on": "MDA cells", "assay": "MTT anticancer assay", "type": "cell-based, human", "conditions": "Homo sapiens, Breast carcinoma cell, 48 h", "description": "as §1, §2"}, "A549 cells [2]": {"tested_on": "A549 cells", "assay": "MTT anticancer assay", "type": "cell-based, human", "conditions": "Homo sapiens, A549, lung carcinoma cells, 48 h", "description": "as §1, §2"}, "S. aureus": {"tested_on": "S. aureus", "assay": "Agar-well diffusion of synthesized compounds", "type": "cell-based, Staphylococcus aureus ATCC 25923", "conditions": "Staphylococcus aureus, 100 μL of 10 mg mL^−1 per well, 24 h, 37 °C", "description": "(§3) The antimicrobial activity of the prepared compounds was estimated through an agar-well diffusion method as adapted from the modified Kirby–Bauer protocol.[24] In this test, microbial pathogens were applied, including Staphylococcus aureus ATCC 25923 (S. aureus), Streptococcus mutans ATCC 25175 (S. mutans), Bacillus cereus ATCC 19637 (B. cereus), Bacillus aureus ATCC 25923 (B. aureus), Bacillus epidermidis ATCC 14990 (B. epidermidis), and Bacillus subtilis ATCC 11774 (B. subtilis) as Gram-positive bacteria, and Pseudomonas aeruginosa ATCC 27853 (P. aeruginosa), Klebsiella pneumonia ATCC 13883 (K. pneumonia), and Salmonella typhimurium ATCC 14028 (S. typhimurium), Salmonella pneumoniae ATCC 10031(S. pneumoniae), Escherichia coli ATCC 10536 (E. coli), and Salmonella paratyphi ATCC 9150 (S. paratyphi) as Gram-negative bacteria. Additionally, Candida albicans (ATCC 10231), Candida krusei ATCC 6258 (C. krusei), Candida glabrata ATCC 66032 (C. glabrata), andCandida parapsilosis ATCC 22019 (C. parapsilosis) were applied as models of unicellular fungi. The pre-inoculation cultures of the pathogens were prepared on Muller–Hinton broth and cultivated for 24 h at 37 °C. The agar-well test was prepared on Muller–Hinton agar with 100 μL of each pathogen pre-culture (0.5 McFarland conc.) and uniformly distributed on the plate surface. […]"}, "all applied pathogens": {"tested_on": "all applied pathogens", "assay": "Agar-well diffusion of synthesized compounds, whole panel", "type": "cell-based", "description": "(§4) The antimicrobial activity of the prepared compounds was estimated through an agar-well diffusion method as adapted from the modified Kirby–Bauer protocol.[24] In this test, microbial pathogens were applied, including Staphylococcus aureus ATCC 25923 (S. aureus), Streptococcus mutans ATCC 25175 (S. mutans), Bacillus cereus ATCC 19637 (B. cereus), Bacillus aureus ATCC 25923 (B. aureus), Bacillus epidermidis ATCC 14990 (B. epidermidis), and Bacillus subtilis ATCC 11774 (B. subtilis) as Gram-positive bacteria, and Pseudomonas aeruginosa ATCC 27853 (P. aeruginosa), Klebsiella pneumonia ATCC 13883 (K. pneumonia), and Salmonella typhimurium ATCC 14028 (S. typhimurium), Salmonella pneumoniae ATCC 10031(S. pneumoniae), Escherichia coli ATCC 10536 (E. coli), and Salmonella paratyphi ATCC 9150 (S. paratyphi) as Gram-negative bacteria. Additionally, Candida albicans (ATCC 10231), Candida krusei ATCC 6258 (C. krusei), Candida glabrata ATCC 66032 (C. glabrata), andCandida parapsilosis ATCC 22019 (C. parapsilosis) were applied as models of unicellular fungi. The pre-inoculation cultures of the pathogens were prepared on Muller–Hinton broth and cultivated for 24 h at 37 °C. The agar-well test was prepared on Muller–Hinton agar with 100 μL of each pathogen pre-culture (0.5 McFarland conc.) and uniformly distributed on the plate surface. Under aseptic conditions, six wells were created on the agar surface using a sterile corkborer (9 mm). To each well, 100 μL of the prepared compound (10 mg mL^−1) was separately inserted into each plate. All plates were incubated for 24 h at 37 °C; the established inhibition zones (Halo-zones) surrounding the wells indicated positive antimicrobial activity and were stated as the radius of the inhibition zone (mm)."}, "S. typhimurium": {"tested_on": "S. typhimurium", "assay": "Agar-well diffusion of synthesized compounds", "type": "cell-based, Salmonella typhimurium ATCC 14028", "conditions": "Salmonella enterica, 100 μL of 10 mg mL^−1 per well, 24 h, 37 °C", "description": "as §3"}, "S. mutans": {"tested_on": "S. mutans", "assay": "Agar-well diffusion of synthesized compounds", "type": "cell-based, Streptococcus mutans ATCC 25175", "conditions": "Streptococcus mutans, 100 μL of 10 mg mL^−1 per well, 24 h, 37 °C", "description": "as §4"}, "Wi-38 cells": {"tested_on": "Wi-38 cells", "assay": "MTT cytotoxicity assay, normal cells", "type": "cell-based", "conditions": "WI-38, normal human lung fibroblast cells, 48 h", "description": "as §1, §2"}},
  "note": "Values joined by “and” are separate entries in the source; they are usually repeats but may differ in a detail not shown here. Equal values may be shown once.",
  "data": [
    {"smiles": "Cc1ccc(-c2nnc(Nc3ccc(NC(=O)c4cc5ccccc5oc4=O)cc3)c3ccccc23)cc1", "note": "[Compound C, 2-oxo-N-(4-((4-(p-tolyl)phthalazin-1-yl)amino)phenyl)-2H-chromene-3-carboxamide]", "values": [
      {"measurement": "Migration inhibition", "setting": "A549 cells [1]", "value": "74.45% and 79.09%"},
      {"measurement": "IC50", "setting": "Caco-2 cells; Homo sapiens, Caco-2, colon carcinoma cells, MTT, 48 h", "value": "7.11 ± 1.68", "unit": "mg/L"},
      {"measurement": "SI Caco-2", "setting": "Caco-2 cells; IC50 Wi-38 / IC50 Caco-2", "value": "19.25 ± 1.36"},
      {"measurement": "IC50", "setting": "MDA cells", "value": "6.06 ± 0.81", "unit": "mg/L"},
      {"measurement": "IC50", "setting": "A549 cells [2]", "value": "12.2 ± 1.36", "unit": "mg/L"},
      {"measurement": "zone of inhibition at 10 mg/mL", "setting": "S. aureus", "value": "~19.5", "unit": "mm"},
      {"measurement": "Antimicrobial activity", "setting": "all applied pathogens", "value": "wide-spectrum antibacterial activity"},
      {"measurement": "zone of inhibition at 10 mg/mL", "setting": "S. typhimurium", "value": "~15.5", "unit": "mm"},
      {"measurement": "zone of inhibition at 10 mg/mL", "setting": "S. mutans", "value": "~17.2", "unit": "mm"},
      {"measurement": "IC50", "setting": "Wi-38 cells", "value": "137 ± 11.7", "unit": "mg/L"}
    ]}
  ]
}
